The results in this text go back to patent US5229265A, “Process for analyzing clastogenic agents” (Litron Laboratories, priority 1990, dated 1993).

Format in all cases: in vivo, mouse
Series [1] deals with micronucleated cells in blood. The experiment in a line: Flow cytometric micronucleus assay, list mode data, blood of MMS treated mice, per 10,000 PCEs. From the text:
(§1) The fixation procedure can affect the permeability of a cell, cell morphology and the amount of undesirable autofluorescence that is associated with a cell preparation. Fixing procedures can cause changes in cell structure (that are reflected in the light scatter patterns) as well as changes in the distribution of the dye molecules within the cells (resulting in altered fluorescence emission patterns). Practioners of the art are unaware that fixing the cells at ultralow temperatures circumvents these fixation problems and provides cells that are suitable for subsequent staining and FCM analysis. Initially, the cells are centrifuged in order to separate them from serum components which could aggregate when added to cold fixative. To fix cells, a fresh blood sample (25 μl) containing an anticogulant is suspended in a solution containing 1% BSA and 10% dimethylsulfoxide (DMSO) in PBS (2 ml). The cells are centrifuged at 500×g for five minutes at room temperature. The supernatant is discarded and the pellet is resuspended in the small amount of residual supernatant that remains. This cell suspension is cooled to 0° C., the cells are diluted further with cold (-70° C.) absolute methanol (2 ml) and it is incubated at -70° C. for five minutes. The cell suspension is then immediately diluted with 1% BSA in PBS (10 ml) and is centrifuged at 500×g for 5 minutes. The low temperature treatment yields fixed cells with good morphology as viewed with either inverted phase contrast microscopy or fluorescent microscopy. […] Cells fixed in this way can be stored at 0° C. for weeks with no significant deterioration and are ready for staining and MN analysis.
(§2) It is known to practioners in the art that a variety of fluorescent dyes can be used to stain the DNA and RNA of cells. […] By choosing proper concentrations of these two dyes in conjunction with 363 nm excitation wavelength, it is possible to obtain a blue fluorescence signal from the Hoechst 33258 labeled micronucleii. A red fluorescence signal can be obtained from propidium iodide labeled PCEs. […]

For series [2], the system named is micronucleated cells in blood. Briefly: Flow cytometric micronucleus assay, dual parameter data, MMS, Hoechst 33258 & propidium iodide, per 500,000 cells. Conditions: MMS 100 μg/g body weight IP at 0 and 48 hours. From the text:
The fixation procedure can affect the permeability of a cell, cell morphology and the amount of undesirable autofluorescence that is associated with a cell preparation. Fixing procedures can cause changes in cell structure (that are reflected in the light scatter patterns) as well as changes in the distribution of the dye molecules within the cells (resulting in altered fluorescence emission patterns). Practioners of the art are unaware that fixing the cells at ultralow temperatures circumvents these fixation problems and provides cells that are suitable for subsequent staining and FCM analysis. […] Cells fixed in this way can be stored at 0° C. for weeks with no significant deterioration and are ready for staining and MN analysis.
When two dyes are used for simultaneous micronucleus and PCE discrimination, the cell suspension is prepared as follows: The Hoechst 33258 working solution described above is prepared and is filtered through an 0.2 micron Acro-disk (Gilman Sciences). […] When blood from a malaria (P. berghei) infected mouse was fixed and stained by this procedure, the bivariate pattern shown in FIG. 1B resulted, in which a stronger red fluorescence signal was obtained. […] The pH of the stained solution is important for good fluorescence emission profiles and resolution of the different cell populations. […]
Background: Flow cytometry measures light scatter and fluorescence of single cells or particles in a stream.

Series [3] relates to micronucleated cells in blood. The experiment in a line: Flow cytometric micronucleus assay, dual parameter data, MMS, Hoechst 33258 stain, per 500,000 cells.
Description: as §1, §2

[4] abbreviates: MMS 100 μg/g body weight IP at 0 and 48 hours, Hoechst 33258.

“And” between values parts separate entries of the source, which are not always exact repeats. Equal values may be shown once. “Also recorded” adds a separate entry of the source.

For the molecule `COS(C)(=O)=O` [MMS, methyl methanesulfonate], the “Experimental (A96) (MN96 hr)” value in series [1] (MMS 100 μg/g body weight IP at 0 and 48 hours, 96 hr blood, list mode) is 432 MNs/10,000 PCEs and 546 MNs/10,000 PCEs and 470 MNs/10,000 PCEs and 523 MNs/10,000 PCEs and 580 MNs/10,000 PCEs. The “Δ (A96 - T96), change in number of MNs” value in series [1] (MMS 100 μg/g body weight IP at 0 and 48 hours, normalized with K, list mode) is 293 MNs/10,000 PCEs and 342 MNs/10,000 PCEs and 328 MNs/10,000 PCEs and 307 MNs/10,000 PCEs and 374 MNs/10,000 PCEs and 329 ± 32 MNs/10,000 PCEs and 329±28 MNs/10,000 PCEs. For the same molecule, the clastogenic activity entry in series [1] (MMS 100 μg/g body weight IP at t=0 and t=48 hours) is “MMS exhibited clastogenic activity”. In series [2], the “Mns (96 hr)” value is 1416 MNs per 500,000 cells and 1394 MNs per 500,000 cells and 1282 MNs per 500,000 cells and 1535 MNs per 500,000 cells; the “ΔMns (T96 - T0)” value was 535 MNs per 500,000 cells and 563 MNs per 500,000 cells and 657 MNs per 500,000 cells and 399 MNs per 500,000 cells and 520 MNs per 500,000 cells and 535 ± 107 MNs per 500,000 cells. Moreover, in series [3] (setting [4]), the “Mns (96 hr)” value was 1654 MNs per 500,000 cells and 1424 MNs per 500,000 cells and 1360 MNs per 500,000 cells and 1662 MNs per 500,000 cells; the “Δ (T96 - T0), change in MNs” value was 713 MNs per 500,000 cells and 620 MNs per 500,000 cells and 512 MNs per 500,000 cells and 540 MNs per 500,000 cells and 596 ± 90 MNs per 500,000 cells. Moreover, in series [3] (MMS 100 μg/g body weight at 0 and 48 hours, 96 hr blood), the “change (Δ) in MNs versus control mice” value is recorded as “significantly higher than the Δ values for the control mice; also recorded: increase in the number of MNs in the analysis area relative to the initial blood”.
